Assay results from ChEMBL document CHEMBL5338766, “X-ray Crystal Structure-Guided Discovery of Novel Indole Analogues as Colchicine-Binding Site Tubulin Inhibitors with Immune-Potentiating and Antitumor Effects against Melanoma” (J Med Chem, 2023).
Active and inactive are the calls of the source. The calls are words filed in the database; no cut-off is given here.

Assays:
B16-F10 [1] = experiment: Antiproliferative activity against mouse B16-F10 cells assessed as inhibition of cell proliferation incubated for 48 hrs by MTT assay; format: functional, cell-based; settings: B16-F10, 48 h
HepG2 [2] = experiment: Antimigratory activity in human HepG2 cells assessed as reduction in recovery area at 1 nM incubated for 24 hrs by wound healing assay (reference value: 65.84%); format: functional; set-up: scale not given: the % may be the effect or the level left
[3] = Toxicity in C57 mouse implanted with mouse B16-F10 cells assessed as pathological changes in liver at 2.5 mg/kg, ip administered every day for 14 days in the presence of NP19 by H&E staining based microscopic analysis; format: organism-based; settings: in vivo, 336 h, time 14 day
[4] = Cmax in Sprague-Dawley rat at 20 mg/kg, po measured upto 12 hrs by UPLC-MS/ESI analysis; format: ADME, organism-based; set-up: time < 12 hrs, dose 20 mg/kg, route po; settings: in vivo
[5] = MRT(0 to t) in Sprague-Dawley rat at 2 mg/kg, iv measured upto 12 hrs by UPLC-MS/ESI analysis; format: ADME, organism-based; settings: in vivo
[6] = Cytotoxicity against HUVEC cells assessed as inhibition of cell proliferation incubated for 24 hrs by MTT assay; format: toxicity, cell-based; settings: human
[7] = Resistance index, ratio of IC50 for antiproliferative activity against paclitaxel resistant human A549/TxR cells to IC50 for antiproliferative activity against parental human A549S cells; format: functional
B16-F10 [8] = experiment: Antitumor activity against mouse B16-F10 cells implanted in C57 mouse assessed as reduction in tumor weight at 2.5 mg/kg, ip administered every day for 14 days in the presence of NP19; format: functional, organism-based; settings: time 14.0 day
HepG2 [9] = experiment: Induction of apoptosis in human HepG2 cells assessed as necrotic cells at 5 nM incubated for 48 hrs by Annexin V-FITC/PI staining based flow cytometric analysis (reference value: 0.443%); format: functional
[10] = Half-life in Sprague-Dawley rat at 20 mg/kg, po measured upto 12 hrs by UPLC-MS/ESI analysis; format: ADME, organism-based; settings: in vivo

SMILES: COc1cc(-c2nccc3[nH]c(-c4cccc5c4ccn5C)nc23)cc(OC)c1OC
- IC50 (B16-F10 [1]): 0.002 µM
- Activity (HepG2 [2]): 32.2%
- Activity [3]: Non-Toxic
- Cmax [4]: 879 ng/mL
- MRT last at 12 h [5]: 1.79 h
- IC50 at 24 h [6]: 0.0621 µM
- Ratio IC50 [7]: 1.8
- Activity (B16-F10 [8]): Active
- Activity (HepG2 [9]): 0.201%
- half-life [10]: 1.83 h
